# From publication PMC4278837, “A Cyclic Peptidic Serine Protease Inhibitor: Increasing Affinity by Increasing Peptide Flexibility” (PLoS ONE, 2014)
# Like-named read-outs stand apart in the source and are kept apart here. Bridge positions count the residues as written; N and C are the ends. Square brackets hold non-standard residues; d marks the D form. Peptide text beside a SMILES is read from it. Ala(1-amidino-4-piperidyl) = N=C(N)N1CCC(C[C@H](N)C(=O)O)CC1; Phe(4-guanidino) = N=C(N)Nc1ccc(C[C@H](N)C(=O)O)cc1
# How the values were obtained:
# huPA-H99Y R35A = target: T1, huPA-H99Y R35A (Homo sapiens, UniProt P00749, H272Y/R198A); experiment: Ki for inhibition of huPA-H99Y-R35A, chromogenic substrate; type: biochemical; details: 37°C; means ± S.D.; read-out: K i for inhibition of huPA-H99Y-R35A
# T1 construct: To ensure that the uPAs purified from the conditioned media were completely in the two-chain form, they were treated with plasmin; hexa-His (C); made in house; host or cells: HEK293 6E suspension cells
# Description: (§1) Determination of Ki values
# (§2) The initial reaction velocities were monitored at an absorbance of 405 nm. The inhibition constants (K i) were subsequently determined from the non-linear regression analyses of plots for V i/V o versus [I]0, using Equation 2, derived under assumption of competitive inhibition:
# (§3) [drawing 2] (2) where V i and V 0 are the reaction velocities in the presence and absence of inhibitor, respectively; [S]0 and [I]0 are the substrate and inhibitor concentrations, respectively; K M is K M for substrate hydrolysis by each protease. In Equation 2, it is assumed that [S]free ≈ [S]0 and [I]free ≈ [I]0.
# huPA-H99Y V41A = target: T2, huPA-H99Y V41A (Homo sapiens, UniProt P00749, H272Y/V208A); experiment: Ki for inhibition of huPA-H99Y-V41A, chromogenic substrate; type: biochemical; details: 37°C; means ± S.D.; read-out: K i for inhibition of huPA-H99Y-V41A
# T2 construct: To ensure that the uPAs purified from the conditioned media were completely in the two-chain form, they were treated with plasmin; hexa-His (C); made in house; host or cells: HEK293 6E suspension cells
# Description: as §1, §2, §3
# huPA-H99Y K143A = target: T3, huPA-H99Y K143A (Homo sapiens, UniProt P00749, H272Y/K320A); experiment: Ki for inhibition of huPA-H99Y-K143A, chromogenic substrate; type: biochemical; details: 37°C; means ± S.D.; read-out: K i for inhibition of huPA-H99Y-K143A
# T3 construct: To ensure that the uPAs purified from the conditioned media were completely in the two-chain form, they were treated with plasmin; hexa-His (C); made in house; host or cells: HEK293 6E suspension cells
# Description: as §1, §2, §3
# muPA K41A = target: T4, muPA K41A (Mus musculus, UniProt P06869, K210A); experiment: Ki for inhibition of muPA-K41A, chromogenic substrate; type: biochemical, murine; details: means ± S.D.; read-out: K i for inhibition of muPA-K41A
# T4 construct: To ensure that the uPAs purified from the conditioned media were completely in the two-chain form, they were treated with plasmin; hexa-His (C); made in house; host or cells: HEK293 6E suspension cells
# T4 sequence (P06869 180-433 K210A): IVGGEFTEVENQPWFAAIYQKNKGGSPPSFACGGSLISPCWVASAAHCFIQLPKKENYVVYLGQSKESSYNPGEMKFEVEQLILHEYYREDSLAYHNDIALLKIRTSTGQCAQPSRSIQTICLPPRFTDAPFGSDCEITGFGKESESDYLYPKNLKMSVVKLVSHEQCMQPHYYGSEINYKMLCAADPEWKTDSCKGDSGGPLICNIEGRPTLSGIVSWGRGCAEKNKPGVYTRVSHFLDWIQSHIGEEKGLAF
# T4 sequence (P06869 21-178 partner limits assumed): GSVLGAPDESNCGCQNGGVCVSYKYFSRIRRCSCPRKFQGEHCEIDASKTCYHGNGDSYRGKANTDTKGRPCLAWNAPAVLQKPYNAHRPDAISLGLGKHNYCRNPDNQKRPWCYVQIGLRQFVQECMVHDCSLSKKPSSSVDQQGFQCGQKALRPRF
# Description: as §1, §2, §3
# muPA Y99A = target: T5, muPA Y99A (Mus musculus, UniProt P06869, Y274A); experiment: Ki for inhibition of muPA-Y99A, chromogenic substrate; type: biochemical, murine; details: means ± S.D.; read-out: K i for inhibition of muPA-Y99A
# T5 construct: To ensure that the uPAs purified from the conditioned media were completely in the two-chain form, they were treated with plasmin; hexa-His (C); made in house; host or cells: HEK293 6E suspension cells
# T5 sequence (P06869 180-433 Y274A): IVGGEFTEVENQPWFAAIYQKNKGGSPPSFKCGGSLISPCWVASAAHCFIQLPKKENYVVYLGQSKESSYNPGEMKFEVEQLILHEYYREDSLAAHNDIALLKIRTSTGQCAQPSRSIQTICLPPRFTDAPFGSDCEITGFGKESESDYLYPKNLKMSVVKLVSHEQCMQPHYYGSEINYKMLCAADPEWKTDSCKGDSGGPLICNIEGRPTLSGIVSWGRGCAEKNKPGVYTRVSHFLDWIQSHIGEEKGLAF
# T5 sequence (P06869 21-178 partner limits assumed): as the sequence (P06869 21-178 partner limits assumed) above
# Description: as §1, §2, §3
# muPA K143A = target: T6, muPA K143A (Mus musculus, UniProt P06869, K322A); experiment: Ki for inhibition of muPA-K143A, chromogenic substrate; type: biochemical, murine; details: means ± S.D.; read-out: K i for inhibition of muPA-K143A
# T6 construct: To ensure that the uPAs purified from the conditioned media were completely in the two-chain form, they were treated with plasmin; hexa-His (C); made in house; host or cells: HEK293 6E suspension cells
# T6 sequence (P06869 180-433 K322A): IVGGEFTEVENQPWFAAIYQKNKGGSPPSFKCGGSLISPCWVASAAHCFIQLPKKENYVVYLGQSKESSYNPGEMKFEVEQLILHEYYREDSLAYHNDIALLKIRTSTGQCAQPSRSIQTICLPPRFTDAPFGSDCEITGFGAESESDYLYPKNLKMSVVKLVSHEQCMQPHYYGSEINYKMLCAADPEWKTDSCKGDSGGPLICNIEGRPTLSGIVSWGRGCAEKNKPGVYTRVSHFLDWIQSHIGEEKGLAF
# T6 sequence (P06869 21-178 partner limits assumed): as the sequence (P06869 21-178 partner limits assumed) above
# Description: as §1, §2, §3
# muPA S190A = target: T7, muPA S190A (Mus musculus, UniProt P06869, S373A); experiment: Ki for inhibition of muPA-S190A, chromogenic substrate; type: biochemical, murine; details: means ± S.D.; read-out: K i for inhibition of muPA-S190A
# T7 construct: To ensure that the uPAs purified from the conditioned media were completely in the two-chain form, they were treated with plasmin; hexa-His (C); made in house; host or cells: HEK293 6E suspension cells
# T7 sequence (P06869 180-433 S373A): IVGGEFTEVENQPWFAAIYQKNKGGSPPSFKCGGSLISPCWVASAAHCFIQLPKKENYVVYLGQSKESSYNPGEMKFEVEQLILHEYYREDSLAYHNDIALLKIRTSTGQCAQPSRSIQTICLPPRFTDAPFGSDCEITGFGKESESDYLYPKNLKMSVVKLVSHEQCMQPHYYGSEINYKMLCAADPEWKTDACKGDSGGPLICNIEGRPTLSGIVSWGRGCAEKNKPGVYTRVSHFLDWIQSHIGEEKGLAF
# T7 sequence (P06869 21-178 partner limits assumed): as the sequence (P06869 21-178 partner limits assumed) above
# Description: as §1, §2, §3
# muPA V213T = target: T8, muPA V213T (Mus musculus, UniProt P06869, V396T); experiment: Ki for inhibition of muPA-V213T, chromogenic substrate; type: biochemical, murine; details: means ± S.D.; read-out: K i for inhibition of muPA-V213T
# T8 construct: To ensure that the uPAs purified from the conditioned media were completely in the two-chain form, they were treated with plasmin; hexa-His (C); made in house; host or cells: HEK293 6E suspension cells
# T8 sequence (P06869 180-433 V396T): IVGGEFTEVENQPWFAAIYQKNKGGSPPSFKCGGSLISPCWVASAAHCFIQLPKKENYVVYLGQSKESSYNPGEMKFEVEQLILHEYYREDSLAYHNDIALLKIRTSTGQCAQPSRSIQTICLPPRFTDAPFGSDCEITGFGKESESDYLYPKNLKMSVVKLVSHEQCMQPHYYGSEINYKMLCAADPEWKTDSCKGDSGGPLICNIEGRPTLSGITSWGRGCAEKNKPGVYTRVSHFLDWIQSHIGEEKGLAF
# T8 sequence (P06869 21-178 partner limits assumed): as the sequence (P06869 21-178 partner limits assumed) above
# Description: as §1, §2, §3
# huPA-H99Y [1] = target: T9, huPA-H99Y (Homo sapiens, UniProt P00749, H272Y); experiment: Surface plasmon resonance analysis of peptide binding to huPA-H99Y; details: SPR; for koff: read-out: koff of fitted curve, representative sensorgram; for kon: read-out: kon of fitted curve, representative sensorgram
# T9 construct: To ensure that the uPAs purified from the conditioned media were completely in the two-chain form, they were treated with plasmin; hexa-His (C); made in house; host or cells: HEK293 6E suspension cells
# Method: (§4) Surface plasmon resonance (SPR) analysis
# (§5) To determine the equilibrium binding constants (KD), the association rate constants (kon) and dissociation rate constants (koff) for peptide binding to uPA, surface plasmon resonance analysis was performed on a Biacore T200 instrument (Biacore, Uppsala, Sweden). A CM5 chip was coupled with the uPA variant (muPA or huPAH99Y) to be analysed, by injecting a concentration of 30 µg/mL uPA in immobilization buffer (10 mM sodium acetate, pH 5.0), aiming for an immobilised level of approximately 500 response units (RU). Immobilisation was followed by surface blocking with ethanolamine. A reference cell was prepared in the same way, without coupling of uPA. Mupain-1 variants in HBS with 0.1% BSA, in a dilution series, were injected at a flow rate of 30 µL per min during 60 s at 25°C. Subsequently, the dissociation was monitored during 600 s. Kinetic constants (k on and k off) were calculated with the Biacore Evaluation Software, using the 1∶1 kinetic fit. The K D values were calculated as k off /k on.
# muPA = target: T10, muPA (Mus musculus, UniProt P06869); experiment: Surface plasmon resonance analysis of peptide binding to muPA; set-up: species or system murine; details: SPR, 25°C, pH 7.4
# T10 construct: To ensure that the uPAs purified from the conditioned media were completely in the two-chain form, they were treated with plasmin; hexa-His (C); made in house; host or cells: HEK293 6E suspension cells
# T10 sequence (P06869 180-433 limits assumed): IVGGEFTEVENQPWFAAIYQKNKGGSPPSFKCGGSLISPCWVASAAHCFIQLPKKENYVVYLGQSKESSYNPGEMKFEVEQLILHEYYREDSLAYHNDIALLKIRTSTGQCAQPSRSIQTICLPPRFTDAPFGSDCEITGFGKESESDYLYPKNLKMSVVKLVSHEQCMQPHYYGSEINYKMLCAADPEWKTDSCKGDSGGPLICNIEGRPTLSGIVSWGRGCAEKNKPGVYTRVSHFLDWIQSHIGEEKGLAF
# T10 sequence (P06869 21-178 partner limits assumed): as the sequence (P06869 21-178 partner limits assumed) above
# Method: as §4, §5
# huPA-H99Y [2] = target: T9, huPA-H99Y; details: 37°C; means ± S.D.; starred values reproduced from previous publications; ref Andersen et al., 2008; Hosseini et al., 2011; read-out: K i for inhibition of huPA-H99Y; cited from earlier work
# muPA wt = target: T11, muPA wt (Mus musculus, UniProt P06869); details: means ± S.D.; starred values reproduced from previous publications; ref Andersen et al., 2008; Hosseini et al., 2011; read-out: K i for inhibition of muPA wt; cited from earlier work
# T11 construct: To ensure that the uPAs purified from the conditioned media were completely in the two-chain form, they were treated with plasmin; hexa-His (C); made in house; host or cells: HEK293 6E suspension cells
# T11 sequence (P06869 180-433 limits assumed): as the sequence (P06869 180-433 limits assumed) above
# T11 sequence (P06869 21-178 partner limits assumed): as the sequence (P06869 21-178 partner limits assumed) above
# huPA-H99Y Q192A = huPA-H99Y Q192A (Homo sapiens, UniProt P00749, H272Y/Q373A); experiment: Ki for inhibition of huPA-H99Y-Q192A, chromogenic substrate; type: biochemical; set-up: To ensure that the uPAs purified from the conditioned media were completely in the two-chain form, they were treated with plasmin; hexa-His (C); made in house; host or cells: HEK293 6E suspension cells; details: 37°C; means ± S.D.; read-out: K i for inhibition of huPA-H99Y-Q192A
# Description: as §1, §2, §3
# [3] = 25°C, pH 7.4, calculated as k off/k on, read-out: K D, huPA-H99Y
# [4] = huPA-H99Y immobilized on CM5 chip, single example (S3 Fig), read-out: KD of fitted curve, representative sensorgram
# [5] = huPA-H99Y immobilized on CM5 chip, single example (S3 Fig)
Ki (huPA-H99Y R35A) [nM],Ki (huPA-H99Y V41A) [nM],Ki (huPA-H99Y K143A) [nM],Ki (muPA K41A) [nM],Ki (muPA Y99A) [µM],Ki (muPA K143A) [nM],Ki (muPA S190A) [nM],Ki (muPA V213T) [nM],"k off, huPA-H99Y (huPA-H99Y [1]; 25°C, pH 7.4)","k on, huPA-H99Y (huPA-H99Y [1]; 25°C, pH 7.4)",Kd (huPA-H99Y [1]; [3]) [nM],Kd (huPA-H99Y [1]; [4]) [nM],koff (huPA-H99Y [1]; [5]) [s⁻¹],kon (huPA-H99Y [1]; [5]) [M⁻¹ s⁻¹],"k off, muPA (muPA)","k on, muPA (muPA)",Ki (huPA-H99Y Q192A) [nM],Compound,Ki (huPA-H99Y [2]) [nM],Ki (muPA wt) [nM]
3260 ± 1040,1600 ± 540,2140 ± 780,1720 ± 240,5.2 ± 0.06,1000 ± 40,2300 ± 460,86 ± 30,"24.6±1.2 (4) s^-1, ×10^2","2.06±0.15 (4) M^-1s^-1, ×10^-5",1210 ± 130,1320,0.248,188000,"1.92±0.63 (4) s^−1, ×10^2","1.56±0.95 (4) M^−1s^−1, ×10^−5",2350 ± 740,"CC(=O)N[C@H]1CSSC[C@@H](C(N)=O)NC(=O)[C@H](CC(=O)O)NC(=O)[C@H](CC(C)C)NC(=O)[C@H](Cc2ccc(O)cc2)NC(=O)[C@H](Cc2ccc(NC(=N)N)cc2)NC(=O)[C@H](CO)NC(=O)[C@H](Cc2ccc(O)cc2)NC(=O)[C@H](C)NC(=O)[C@@H]2CCCN2C1=O [Mupain-1-12, CPAYS[4-guanidino-phenyl-alanine]YLDC] (Ac-CPAYS[Phe(4-guanidino)]YLDC-NH2; disulfide 1-10)",1860 ± 740,280 ± 20
2500 ± 290,1950 ± 300,1130 ± 320,300 ± 50,1.24 ± 0.44,130 ± 20,352 ± 40,13 ± 3,"8.93±0.46 (4) s^-1, ×10^2","1.07±0.15 (4) M^-1s^-1, ×10^-5",844 ± 132,920,0.0929,101000,"0.671±0.119 (3) s^−1, ×10^2","0.898±0.545 (3) M^−1s^−1, ×10^−5",2710 ± 280,"CC(=O)N[C@H]1CSSC[C@@H](C(N)=O)NC(=O)[C@H](CC(=O)O)NC(=O)[C@H](CC(C)C)NC(=O)[C@H](Cc2ccc(O)cc2)NC(=O)[C@H](CC2CCN(C(=N)N)CC2)NC(=O)[C@H](CO)NC(=O)[C@H](Cc2ccc(O)cc2)NC(=O)[C@H](C)NC(=O)[C@@H]2CCCN2C1=O [Mupain-1-16, CPAYS[L-3-(N-amidino-4-piperidyl)alanine]YLDC] (Ac-CPAYS[Ala(1-amidino-4-piperidyl)]YLDC-NH2; disulfide 1-10)",2480 ± 70,45 ± 10
